“Also recorded” adds a separate entry of the source.
Key:
apelin receptor = details: SAR study of short ELA fragments; cited from earlier work
rat plasma in vitro = details: cited from earlier work
furin = test: buffer-based ELA-32 digestion study; details: cited from earlier work
[1] = human plasma, pooled from four healthy human donors; details: 37 °C, up to 240 min
[2] = human kidney homogenised in 50 mM HEPES solution, pH 7.4; details: 37 °C, up to 120 min

Sequence | binding to the apelin receptor (in words) (apelin receptor) | fragment found (rat plasma in vitro) | fragment found (furin) | cleaved bond [1] | fragment found [2]
LHSRVPFP [ELA-8, ELA-32 fragment from loss of N-terminal amino acids] | completely lost its ability to bind the apelin receptor |  |  |  | 
QRPVNLTMRRKLRKHNCLQRRCMPLHSRVPFP |  | ELA-22; also recorded: ELA-32(1-9) | ELA-11 | R-R and L-R, major, 60 min and R-K, first_seen, within 2 min and H-N, major, 60 min and Arg21-Cys22, major, 60 min and proline-phenylalanine | ELA-23, earliest time points; also recorded: ELA-17, 60 min

— publication PMC8484864 (Peptides, 2021)
